Our source for the AC35 values is PubChem BioAssay AID720587 (Broad Institute, 2013).

This assay has as its system A673 Ewing sarcoma viability, CellTiter-Glo ATP luminescence, 72 h. Nature of the assay: EWS/Fli1-dependent A673 cell killing, confirmation, CellTiter-Glo luminescence, cherry-pick retest (AID 720587). Background: ATP-based viability assays read luminescence as a measure of living cells.

Consider `COc1ccc(S(=O)(=O)Nc2ccc3c(c2)C(=O)N([C@H](C)CO)C[C@@H](C)[C@@H](CN(C)CC2CCCCC2)OCCCC[C@H](C)O3)cc1`, for which the AC35 was 12.3 µM.

In the case of `C[C@@H]1CN([C@H](C)CO)C(=O)c2cc(C#CCN(C)C)cnc2O[C@H]1CN(C)Cc1ccc(-c2ccccc2)cc1`, the AC35 was 10.2 µM. Regarding `CN(C)c1ccc(C=c2c3ccccc3n3c2c2c([n+]3C)CCCC2)cc1`, the AC35 was 2.82 µM. On to `C=C1C(=O)OC2C1CCC(C)C1(O)C=CC(=O)C21C` (stereo unspecified), for which the AC35 is 6.43 µM.

On to `Oc1cccc(-c2nnc(-c3cccc(O)c3)nn2)c1`, for which the AC35 was 11.9 µM. For the molecule `O=c1oc2cc(O)ccc2s1`, the AC35 was 12.5 µM. On to `C(=Cc1nc2ccccc2o1)c1ccc2c(c1)OCO2`, for which the AC35 is 19 µM. As for `N#C[C@@H]1[C@H](c2ccc(C#Cc3ccc(F)cc3)cc2)[C@@H](CO)N1C(=O)Nc1ccc(F)cc1`, the AC35 is 12.3 µM. As for `CCCCCCCCCCCCCCCCCCNc1ccn(C2OC(COP(=O)(O)OCC3OC(n4cc(F)c(=O)[nH]c4=O)CC3O)C(O)C2O)c(=O)n1` (stereo unspecified), the figure is 0.137 µM. As for `O=C(O)c1ccccc1C(=O)Nc1ccc(Oc2ccc3ccccc3c2)cc1`, the figure is 15.6 µM; as for `CC(C)(C)c1ccc(Cn2c(=O)cnc3ccccc32)cc1`, 12.5 µM; as for `C[C@H]1CN([C@@H](C)CO)C(=O)Cc2cc(NC(=O)CCC(F)(F)F)ccc2O[C@H]1CN(C)Cc1ccc(C(=O)Nc2ccccc2N)cc1`, 8.75 µM. As for `CN(C)c1ccc2c(c1)[C@@H]1C[C@@H](CC(=O)NCc3ccc(Oc4ccccc4)cc3)O[C@H](CO)[C@@H]1O2`, the figure is 12.8 µM. For the molecule `COC(=O)C[C@@H]1CC[C@@H]2[C@H](COc3ccc(NC(=O)c4ccc(C(F)(F)F)cc4)cc3C(=O)N2C)O1`, the AC35 was 10.5 µM. As for `C[C@@H]1CN([C@H](C)CO)C(=O)c2cc(NC(=O)CCCCCC(=O)Nc3ccccc3N)ccc2O[C@@H]1CN(C)Cc1ccc(Cl)c(Cl)c1`, the figure is 9.95 µM; as for `C[C@H](CO)N1C[C@H](C)[C@@H](CN(C)Cc2ccc(C(F)(F)F)cc2)OCCCC[C@H](C)Oc2ccc(NS(=O)(=O)c3ccc(F)cc3)cc2C1=O`, 13.4 µM; as for `CCCN1C/C(=C/c2ccc3c(c2)OCO3)C(=O)/C(=C/c2ccc3c(c2)OCO3)C1`, 3.77 µM. As for `CCNC(=O)c1cc2c(c(-c3cccc(-c4cccc(OC)c4)c3)n1)[C@H](CCO)N([S@@](=O)C(C)(C)C)C2`, the figure is 5.13 µM. As for `O=c1cc(-c2ccccc2)oc2ccc3ccccc3c12`, the figure is 5.83 µM; as for `CC(=O)OC1CC2(O)C3CCC4CC(O)CCC4(C)C3CCC2(C)C1C1=CC(=O)OC1` (stereo unspecified), 0.213 µM. For `COc1ccccc1NC(=O)N1CCCCN2[C@H](CO)[C@H](c3ccc(-c4cccc(C)c4)cc3)[C@H]2C1`, the AC35 is 9.29 µM. With `NC(Cc1ccc(C(F)(F)F)cc1)c1csc(NC(=O)Nc2ccccc2Cc2ccccc2)n1` (stereo unspecified), the AC35 is 12.8 µM. As for `N#C[C@H]1[C@H](c2ccc(-c3ccccc3F)cc2)[C@@H](CO)N1C(=O)c1ccccn1`, the figure is 14.5 µM. As for `COc1ccc(S(=O)(=O)N2CC[C@@H]3[C@@H](CO)Nc4ccc(-c5ccc(C#N)cc5)cc4[C@@H]32)cc1`, the figure is 8.87 µM; as for `CCc1ccc(/C=C2\SC(=S)N(CCCC(=O)NCCCN3CCOCC3)C2=O)cc1`, 18.7 µM.

In the case of `COc1ccc(C2=NNC(=Nc3cc(S(=O)(=O)N(C)C)ccc3C)SC2)c(OC)c1`, the AC35 is 20.5 µM. As for `CCn1c(/C=N/NC(=O)c2ccc(OC)cc2)nc2ccccc21`, the figure is 5.62 µM. As for `Cc1sc2nc(CN3CCC(C)CC3)nc(Cl)c2c1C`, the figure is 10.7 µM; as for `Cc1c(Cl)cccc1NC(=O)CCC(=O)N/N=C/c1ccc[nH]1`, 6.52 µM. As for `C[C@H](CO)N1C[C@H](C)[C@H](CN(C)Cc2ccc(Oc3ccccc3)cc2)Oc2ccc(NC(=O)CCCCCC(=O)Nc3ccccc3N)cc2CC1=O`, the AC35 is 4.84 µM.

Regarding `C[C@@H]1CN([C@@H](C)CO)C(=O)c2cccc(NS(=O)(=O)c3ccc(Cl)cc3)c2O[C@@H]1CN(C)Cc1ccc(C(=O)Nc2ccccc2N)cc1`, the AC35 is 8.47 µM. Consider `O=C(C[C@@H]1C[C@H]2c3cc(NS(=O)(=O)c4ccc(F)cc4)ccc3O[C@H]2[C@H](CO)O1)NCc1ccc(-c2ccccc2)cc1`, for which the AC35 is 4.21 µM. As for `O=C(Sc1cccc2cccnc12)c1ccccc1Br`, the figure is 1.17 µM; as for `CCOc1ccc(N=Nc2ccc(O)c3ncccc23)cc1`, 0.5 µM. As for `Brc1ccc(CSc2nnc(-c3ccco3)o2)cc1`, the figure is 6.49 µM. For `COc1ccc(OC)c(/C=C/c2ccnc3ccccc23)c1`, the AC35 was 1.7 µM.

`Cc1ccc(S(=O)(=O)N(C)C[C@@H]2Oc3ccc(NC(=O)CCCCCC(=O)Nc4ccccc4N)cc3CC(=O)N([C@@H](C)CO)C[C@@H]2C)cc1`: the AC35 is 15.3 µM. As for `C[C@H]1CN([C@@H](C)CO)S(=O)(=O)c2ccc(C#Cc3ccncc3)cc2O[C@@H]1CN(C)S(=O)(=O)c1ccccc1`, the figure is 16.5 µM; as for `CCc1nc(N)nc(N)c1-c1ccc(Cl)cc1`, 8.71 µM; as for `COc1ccc(S(=O)(=O)Nc2ccc3c(c2)C(=O)N([C@H](C)CO)C[C@@H](C)[C@@H](CN(C)Cc2ccc(C(=O)Nc4ccccc4N)cc2)O3)cc1`, 12.5 µM. As for `C[C@]12CCC3C(CCC4=CC(O)CC[C@@]43/C=N/O)C1(O)CCC2C1=CC(=O)OC1` (stereo partly specified), the figure is 0.569 µM; as for `COC(=O)C[C@H]1CC[C@@H]2[C@H](COc3ccc(NC(=O)Nc4cccc(Cl)c4)cc3C(=O)N2C)O1`, 14.1 µM; as for `CCOc1cc2[nH]c(=S)n(Cc3ccc(C(=O)NCCN(CC)CC)cc3)c(=O)c2cc1OCC`, 12 µM. Consider `O=C1/C(=C\c2ccccc2)CN(C(=O)CCN2CCCCC2)C/C1=C/c1ccccc1`, for which the AC35 was 0.734 µM. As for `Cc1ccc(OCCNC(=O)c2cccc(S(=O)(=O)NCc3ccccc3)c2)cc1`, the figure is 4.65 µM; as for `COc1cccc(Sc2ccccc2/C=N/NC(N)=O)c1`, 2.23 µM; as for `Cc1ccc(/C=C2\SC(=S)N(CCCC(=O)NNC(=O)c3ccccc3O)C2=O)cc1`, 11.3 µM. As for `COC(=O)C[C@@H]1CC[C@@H]2[C@@H](COc3ccc(NC(=O)Nc4cccc(F)c4)cc3C(=O)N2C)O1`, the figure is 13.5 µM; as for `N#CC1C=Cc2c(ccc3ccccc23)N1C(=O)c1ccccc1` (stereo unspecified), 9.42 µM. As for `COC(=O)C[C@@H]1CC[C@@H]2[C@H](COc3ccc(NC(=O)Nc4cccc(C#N)c4)cc3C(=O)N2C)O1`, the figure is 12 µM; as for `NC1=CC(=O)C(=O)c2cccnc21`, 11.1 µM. Turning to `C[C@H]1CN([C@@H](C)CO)S(=O)(=O)c2ccc(C#CC(C)(C)O)cc2O[C@@H]1CN(C)Cc1ccc(-c2ccccc2)cc1`, the AC35 was 0.656 µM. `C[C@H]1CCCCO[C@H](CN(C)Cc2ccc(C(F)(F)F)cc2)[C@@H](C)CN([C@@H](C)CO)C(=O)c2cc(NC(=O)Nc3ccccc3)ccc2O1`: the AC35 is 12.6 µM.

Consider `O=C1NC(=O)N(Cc2ccc(F)cc2)C(=O)/C1=C\C=C\c1ccco1`, for which the AC35 was 5.3 µM. Turning to `C[C@H](CO)N1C[C@H](C)[C@@H](CN(C)Cc2ccc(Oc3ccccc3)cc2)Oc2ccc(NS(=O)(=O)c3ccc(Cl)cc3)cc2CC1=O`, the AC35 was 16.2 µM.

Regarding `CN1c2ccc(-c3ccc(C#N)cc3)cc2[C@H]2[C@H](CCN2S(=O)(=O)c2cccc(F)c2)[C@@H]1CO`, the AC35 is 4.45 µM.
